From PubChem BioAssay (NCI)
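Protocol summary: plate cells (96-well), add compound at 5 concentrations, incubate 48 h, interpolate endpoints linearly. GI50 is the concentration that inhibits growth by half. TGI: concentration producing complete growth inhibition.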

Legend:
Experiment in all cases: NCI tumour cell line growth inhibition, 48 h
[1] = tested on: IGROV1 ovarian
[2] = tested on: MOLT-4 leukemia
[3] = tested on: TK-10 renal
[4] = tested on: NCI-H23 lung
[5] = tested on: MALME-3M melanoma
[6] = tested on: 786-0 renal
[7] = tested on: SK-MEL-2 melanoma
[8] = tested on: RXF 393 renal
[9] = tested on: SN12C renal
[10] = tested on: K-562 leukemia

Row | Compound | TGI [1] | TGI [2] | TGI [3] | TGI [4] | TGI [5] | TGI [6] | TGI [7] | TGI [8] | TGI [9] | GI50 [1] | GI50 [2] | GI50 [3] | GI50 [4] | GI50 [5] | GI50 [6] | GI50 [7] | GI50 [8] | GI50 [9] | GI50 [10] | TGI [10]
1 | CCOc1ccc(NC(=O)CC2SC(N)=NC2=O)cc1 (centres undefined) | > 100 µM | > 100 µM | > 100 µM | > 100 µM | > 100 µM | > 100 µM | > 100 µM | > 100 µM | > 100 µM | – | – | – | – | – | – | – | – | – | – | –
2 | CC[CH2][Pb]([CH2]CC)([CH2]CC)[NH]S(=O)(=O)c1ccc(C)cc1 | 0.19 µM | 4.51 µM | 0.36 µM | 0.0375 µM | 0.174 µM | 0.134 µM | 0.0436 µM | 0.0869 µM | 0.172 µM | 0.0723 µM | 0.0746 µM | 0.0971 µM | 0.0178 µM | 0.0431 µM | 0.0574 µM | 0.0176 µM | 0.0218 µM | 0.0681 µM | – | –
3 | Cc1cc(N2CCCC2)nc(N(CCCNc2ccnc3cc(Cl)ccc23)Cc2ccc3c(c2)OCO3)n1 | 4.33 µM | 4.64 µM | 6.81 µM | 15.5 µM | 3.2 µM | 2.8 µM | 4 µM | – | 11.3 µM | 1.38 µM | 1.3 µM | 2.25 µM | 2.36 µM | 1.65 µM | 1.11 µM | 1.84 µM | – | 1.76 µM | 0.218 µM | 1.86 µM
4 | Nc1nc(OCc2ccccc2)nc2[nH]ncc12 | > 100 µM | > 100 µM | 14.2 µM | 32.7 µM | – | 44.4 µM | 47.9 µM | – | 28.5 µM | 32.5 µM | 24.3 µM | 1.39 µM | 15.7 µM | – | 18.7 µM | 20.3 µM | – | 13.9 µM | 19.7 µM | > 100 µM
5 | CN(C)CCNC(=O)c1ccc(Cl)c2c(Nc3ccc(S(N)(=O)=O)cc3)c3ccccc3nc12 | 16.5 µM | – | 13.6 µM | 11.6 µM | 12.5 µM | 9.2 µM | 4 µM | – | 10.1 µM | – | – | – | – | – | – | – | – | – | – | 11.4 µM
6 | N#Cc1ccccc1NC(=O)c1ccccc1 | > 100 µM | – | > 100 µM | > 100 µM | > 100 µM | > 100 µM | > 100 µM | > 100 µM | > 100 µM | – | – | – | – | – | – | – | – | – | – | > 100 µM
7 | CC(C)=CCC/C(C)=C/Cc1c(O)ccc2c1[nH]c1cc(O)c(C)cc12 | > 25 µM | > 25 µM | > 25 µM | – | > 25 µM | > 25 µM | > 25 µM | > 25 µM | > 25 µM | – | – | – | – | – | – | – | – | – | – | > 25 µM
8 | C=CCc1ccc(O)c(-c2cc(C3Oc4c(-c5cc(CC=C)ccc5O)cc(O)cc4[C@@H]3CO)ccc2O)c1 (some centres undefined) | 51.6 µM | – | > 100 µM | 76.4 µM | > 100 µM | > 100 µM | 45.9 µM | 55.8 µM | > 100 µM | – | – | – | – | – | – | – | – | – | – | 34.1 µM
9 | CS(=O)(=O)Nc1cc(-c2ccc3ncnc(Nc4ccc5c(cnn5Cc5ccc(F)cc5)c4)c3c2)cnc1Cl | 1.71 µM | 3.89 µM | – | 5.43 µM | 2.92 µM | 19.9 µM | 3.28 µM | 2.26 µM | 19.3 µM | 0.314 µM | 0.801 µM | – | 1.43 µM | 0.441 µM | 2.22 µM | 1.09 µM | 0.38 µM | 1.66 µM | 1.4 µM | 12.7 µM
10 | N/N=C(\Cc1ccccc1)NN=C(N)N | > 100 µM | > 100 µM | > 100 µM | > 100 µM | > 100 µM | > 100 µM | > 100 µM | – | > 100 µM | – | – | – | – | – | – | – | – | – | – | > 100 µM
11 | N#CC1C(N)=NNC12Nc1ccccc1N2 (centres undefined) | 71.3 µM | – | 73.3 µM | – | – | > 100 µM | 77.5 µM | 7.27 µM | – | 11.9 µM | – | 30.7 µM | – | – | 45 µM | 15.1 µM | 0.335 µM | – | 14 µM | 78.6 µM
12 | COc1cnc2c(c1)C(=O)c1c-2n(CCCN2CCCC2)c(=O)c2cc(Cl)ccc12 | 12.5 µM | 6.23 µM | – | 9.16 µM | 15.3 µM | 9.66 µM | 22.6 µM | 5.82 µM | – | 2.47 µM | 0.0193 µM | – | 0.857 µM | 5.9 µM | 1.47 µM | 7.16 µM | 0.705 µM | – | 0.792 µM | 11.4 µM
13 | Fc1ccc(Nc2nccc(-c3c(-c4ccc(C(F)(F)F)cc4)nn4ncccc34)n2)cc1F | > 25 µM | > 25 µM | > 25 µM | > 25 µM | > 25 µM | > 25 µM | – | > 25 µM | > 25 µM | > 25 µM | > 25 µM | > 25 µM | > 25 µM | > 25 µM | > 25 µM | – | > 25 µM | > 25 µM | > 25 µM | > 25 µM
14 | CC1=NN(C(=O)c2ccc(Cl)cc2)C(=O)/C1=C/c1cccc([N+](=O)[O-])c1 | > 100 µM | – | > 100 µM | > 100 µM | > 100 µM | > 100 µM | > 100 µM | > 100 µM | > 100 µM | – | – | – | – | – | – | – | – | – | – | > 100 µM
15 | O=C(Cc1ccccc1)N/N=C(\C1=Nc2ccc([N+](=O)[O-])cc2NC1O)C(O)c1ccc([N+](=O)[O-])cc1 (centres undefined) | > 100 µM | – | > 100 µM | > 100 µM | > 100 µM | > 100 µM | > 100 µM | > 100 µM | > 100 µM | – | – | – | – | – | – | – | – | – | – | > 100 µM
16 | O=C1C(=O)N(C2C3CC4CC(C3)CC2C4)C(=O)C(=O)C1c1nc2ccccc2o1 (centres undefined) | > 100 µM | – | > 100 µM | > 100 µM | > 100 µM | > 100 µM | > 100 µM | > 100 µM | > 100 µM | – | – | – | – | – | – | – | – | – | – | 77.4 µM
17 | O=c1[nH]cnc2c(C3OC(CO)C(O)C3O)scc12 (centres undefined) | > 100 µM | – | > 100 µM | > 100 µM | > 100 µM | > 100 µM | > 100 µM | > 100 µM | > 100 µM | 73.5 µM | – | 11.6 µM | > 100 µM | 13.8 µM | > 100 µM | 44.8 µM | > 100 µM | > 100 µM | 31.5 µM | > 100 µM
